Where a SMILES comes first, the peptide text is derived from it. [ ]: non-standard residue; d: D form. The star is where a group is joined. Met(O2) = CS(=O)(=O)CC[C@H](N)C(=O)O; Ala(cPr) = N[C@@H](CC1CC1)C(=O)O; Cbz = O=C(OCc1ccccc1)*
Tests used:
SARS-CoV-2 Mpro [1] = target: T1, SARS-CoV-2 Mpro (Severe acute respiratory syndrome coronavirus 2, UniProt P0DTD1); test: biochemical; type: biochemical; settings: for IC50 / Ki: Kinetics N = 2 (95% CI); for IC50: 4-parameter fit of the same data; for Ki: Morrison fit, 1 nM Mpro, 800 mM citrate buffer, 15 min preincubation
SARS-CoV-2 = test: Anti-viral potency: inhibition of in vitro replication of SARS-CoV-2 in A549 cells; type: cell-based; settings: for EC50: Severe acute respiratory syndrome coronavirus 2, A549 cells, 10-point titration from 50 μM, triplicate
SARS-CoV-2 Mpro [2] = target: T1, SARS-CoV-2 Mpro; type: binding; settings: 40 μM 15N-labeled deuterated Mpro, 20 or 40 μM compound, SPR buffer
SARS-CoV-2 Mpro [3] = target: T1, SARS-CoV-2 Mpro; test: Covalent bond (adduct) formation kinetics by IR-MALDESI intact protein MS; type: binding; settings: for kobs (95 % CI) for adduct formation / kobs (95 % CI) Quenched, SPR: SPR buffer; for kobs (95 % CI) for adduct formation: Figure 2; for kobs (95 % CI) Quenched, SPR / kobs (95 % CI) Quenched, Citrate: quenched with 200 μM compound 9, 10 μM compound and Mpro, Figure S5; for kobs (95 % CI) Quenched, Citrate: citrate buffer, only estimated for lack of early timepoints
SARS-CoV-2 Mpro [4] = target: T1, SARS-CoV-2 Mpro; type: binding; settings: 300 μM 13C-labeled compound, 100 μM Mpro, SPR buffer; for covalent adduct formation with Cys145 seen by 13C NMR: up to 3 h (compound 1) or 6 h (compound 5)
[5] = type: physicochemical; settings: 500 μM, monitored for 10 h at 16-min intervals
[6] = first determination, 4-parameter IC50 fit
[7] = second determination, 4-parameter IC50 fit

Row | SMILES | Hill slope (SARS-CoV-2 Mpro [1]; 4-parameter IC50 refit) | Hill slope (SARS-CoV-2 Mpro [1]; [6]) | Hill slope (SARS-CoV-2 Mpro [1]; [7]) | EC50 (SARS-CoV-2) [µM] | exchange regime of binding on the NMR timescale (SARS-CoV-2 Mpro [2]) | kobs (95 % CI) for adduct formation (SARS-CoV-2 Mpro [3]; Ratio Cmpd:Mpro 1:1) | kobs (95 % CI) for adduct formation (SARS-CoV-2 Mpro [3]; Ratio Cmpd:Mpro 2:1) | kobs (95 % CI) for adduct formation (SARS-CoV-2 Mpro [3]; Ratio Cmpd:Mpro 5:1) | kobs (95 % CI) Quenched, SPR (SARS-CoV-2 Mpro [3]) [Min -1] | kobs (95 % CI) Quenched, Citrate (SARS-CoV-2 Mpro [3]) [Min -1] | non-covalently bound form seen by 13C NMR (SARS-CoV-2 Mpro [4]; extended incubation) | covalent adduct formation with Cys145 seen by 13C NMR (SARS-CoV-2 Mpro [4]) | epimerization at P1: αH resonance in D2O SPR buffer [5] | decrease of cellular EC50 versus the Ki determined in citrate buffer (SARS-CoV-2; EC50 in A549 cells versus Ki) [fold] | IC50 (SARS-CoV-2 Mpro [1]; first determination) [µM] | Ki (SARS-CoV-2 Mpro [1]; first determination) [µM] | IC50 (SARS-CoV-2 Mpro [1]; second determination) [µM] | Ki (SARS-CoV-2 Mpro [1]; second determination) [µM]
1 | COc1cccc2[nH]c(C(=O)N[C@@H](CC3CC3)C(=O)N[C@H](C=O)C[C@@H]3CCNC3=O)cc12 [Compound 1, N-((S)-3-cyclopropyl-1-oxo-1-(((S)-1-oxo-3-((S)-2-oxopyrrolidin-3-yl)propan-2-yl)amino)propan-2-yl)-4-methoxy-1H-indole-2-carboxamide] | greater than 1 | 3.1 | 2.0 | 6.2 | slow exchange regime | 0.11 (0.04919 to 0.2232) | 0.34 (0.1598 to 0.8874) | 2.0 (1.597 to 2.492) | 0.13 | 0.31 | stably bound to Mpro non-covalently | thiohemiacetal formation | no change in intensity |  |  |  |  | 
2 | O=C[C@H](C[C@@H]1CCNC1=O)NC(=O)[C@H](CC1CC1)NC(=O)OCc1ccccc1 [Compound 2, benzyl ((S)-3-cyclopropyl-1-oxo-1-(((S)-1-oxo-3-((S)-2-oxopyrrolidin-3-yl)propan-2-yl)amino)propan-2-yl)carbamate] | greater than 1 | 2.7 | 2.5 | 3.3 |  |  |  |  | 0.49 | 0.85 |  |  |  |  |  |  |  | 
3 | COc1cccc2[nH]c(C(=O)N[C@@H](CC3CC3)C(=O)N[C@H](C=O)CCS(C)(=O)=O)cc12 [Compound 3, N-((S)-3-cyclopropyl-1-(((S)-4-(methylsulfonyl)-1-oxobutan-2-yl)amino)-1-oxopropan-2-yl)-4-methoxy-1H-indole-2-carboxamide] | 1.5 | 1.5 | 1.5 |  |  |  |  |  | 0.18 | 0.30 |  |  |  |  |  |  |  | 
4 | CS(=O)(=O)CC[C@@H](C=O)NC(=O)[C@H](CC1CC1)NC(=O)OCc1ccccc1 [Compound 4, benzyl ((S)-3-cyclopropyl-1-(((S)-4-(methylsulfonyl)-1-oxobutan-2-yl)amino)-1-oxopropan-2-yl)carbamate] (Cbz-[Ala(cPr)]-[Met(O2)]-aldehyde) |  | 1.0 | 1.0 | 22 |  |  |  |  | 0.29 | 0.35 |  |  |  |  |  |  |  | 
5 | COc1cccc2[nH]c(C(=O)N[C@@H](CC3CC3)C(=O)N[C@H](C#N)C[C@@H]3CCNC3=O)cc12 [Compound 5, N-((S)-1-(((S)-1-cyano-2-((S)-2-oxopyrrolidin-3-yl)ethyl)amino)-3-cyclopropyl-1-oxopropan-2-yl)-4-methoxy-1H-indole-2-carboxamide] |  | 1.0 | 1 | 3.2 | fast exchange regime | 0.33 (0.2393 to 0.4596) | 0.40 (0.2513 to 0.6949) | 1.6 (0.7658 to 3.045) | 1.2 | 0.47 |  | no new peaks emerged to suggest thioimidate formation |  | 760 |  |  |  | 
6 | N#C[C@H](C[C@@H]1CCNC1=O)NC(=O)[C@H](CC1CC1)NC(=O)OCc1ccccc1 [Compound 6, benzyl ((S)-1-(((S)-1-cyano-2-((S)-2-oxopyrrolidin-3-yl)ethyl)amino)-3-cyclopropyl-1-oxopropan-2-yl)carbamate] |  | 1.1 | 1.0 | 13 |  |  |  |  | 0.08 | 0.34 |  |  |  |  |  |  |  | 
7 | COc1cccc2[nH]c(C(=O)N[C@@H](CC3CC3)C(=O)N[C@H](C#N)CCS(C)(=O)=O)cc12 [Compound 7, N-((S)-1-(((S)-1-cyano-3-(methylsulfonyl)propyl)amino)-3-cyclopropyl-1-oxopropan-2-yl)-4-methoxy-1H-indole-2-carboxamide] |  | 0.6 |  | > 50 |  |  |  |  |  |  |  |  |  |  |  |  |  | 
8 | CS(=O)(=O)CC[C@@H](C#N)NC(=O)[C@H](CC1CC1)NC(=O)OCc1ccccc1 [Compound 8, benzyl ((S)-1-(((S)-1-cyano-3-(methylsulfonyl)propyl)amino)-3-cyclopropyl-1-oxopropan-2-yl)carbamate] |  |  |  |  |  |  |  |  |  |  |  |  |  |  | > 12.5 | > 12.5 | > 12.5 | > 12.5
